{
  "source": "paper PMC8921294",
  "about": "“Inhibition of mitochondrial LonP1 protease by allosteric blockade of ATP binding and hydrolysis via CDDO and its derivatives” (The Journal of Biological Chemistry, 2022)",
  "key": {"26S proteasome": {"system": "26S proteasome", "experiment": "26S proteasome-dependent degradation of p53 in HeLa ρ^0 cells (immunoblot)", "type": "cell-based, human", "conditions": "7 h", "text": "LonP1 belongs to the AAA^+ superfamily of ATPases Associated with diverse cellular Activities, which mediate various cellular processes such as DNA replication, recombination, chromatin remodeling, ribosomal RNA processing, membrane fusion as well as ATP-dependent proteolysis ([48]). The 26S proteasome consists of the 20S proteolytic core particle, which mediates peptide bond hydrolysis and the 19S regulatory particle containing ATPases belonging to the AAA^+ family ([49]). […] We sought to test the apparent selectivity of CDDO derivatives for LonP1 but not the 26S in cultured cells. There are no known proteins that are constitutively degraded by LonP1 under baseline conditions, which would permit us to assay protease inhibition by CDDO derivatives. Therefore, we employed experimentally derived HeLa cells lacking mitochondrial DNA (mtDNA) (referred to as HeLa ρ^0 cells) ([50]), in which LonP1 constitutively degrades mitochondrial transcription factor A (TFAM) ([6]). When TFAM fails to bind mtDNA (e.g., when mtDNA is absent), it is rapidly degraded by LonP1, thus providing a readout for protease activity ([6]). An advantage of using this system is that HeLa cells express the human papillomavirus (HPV) E6 protein, which promotes constitutive degradation of p53 by the 26S proteasome. Thus, the effects of CDDO derivatives on LonP1 and the 26S proteasome can be examined in parallel.\nHeLa cells devoid of mitochondrial DNA (HeLa ρ^0) and LCL cells were generated as described previously ([50]). DMEM, RPMI, and fetal bovine serum were purchased from Sigma. All cells were grown with 5% CO2 at 37 °C. LCL cells were cultured in RPMI supplemented with 15% FBS. HeLa Rho 0 cells were cultured in high glucose DMEM (25 mM) (Sigma) supplemented with sodium pyruvate ([…]) and uridine ([…]). CDDO-Me was purchased from Cayman chemicals, and CDDO-AH was synthesized as described previously ([20]). […]"}, "LonP1^R721G": {"molecular_target": "T1, LonP1^R721G (Homo sapiens, UniProt P36776, R721G)", "T1 construct": "hexa-histidine (N); made in house; host or cells: Rosetta 2 E. coli", "T1 sequence (P36776 68-959 R721G)": "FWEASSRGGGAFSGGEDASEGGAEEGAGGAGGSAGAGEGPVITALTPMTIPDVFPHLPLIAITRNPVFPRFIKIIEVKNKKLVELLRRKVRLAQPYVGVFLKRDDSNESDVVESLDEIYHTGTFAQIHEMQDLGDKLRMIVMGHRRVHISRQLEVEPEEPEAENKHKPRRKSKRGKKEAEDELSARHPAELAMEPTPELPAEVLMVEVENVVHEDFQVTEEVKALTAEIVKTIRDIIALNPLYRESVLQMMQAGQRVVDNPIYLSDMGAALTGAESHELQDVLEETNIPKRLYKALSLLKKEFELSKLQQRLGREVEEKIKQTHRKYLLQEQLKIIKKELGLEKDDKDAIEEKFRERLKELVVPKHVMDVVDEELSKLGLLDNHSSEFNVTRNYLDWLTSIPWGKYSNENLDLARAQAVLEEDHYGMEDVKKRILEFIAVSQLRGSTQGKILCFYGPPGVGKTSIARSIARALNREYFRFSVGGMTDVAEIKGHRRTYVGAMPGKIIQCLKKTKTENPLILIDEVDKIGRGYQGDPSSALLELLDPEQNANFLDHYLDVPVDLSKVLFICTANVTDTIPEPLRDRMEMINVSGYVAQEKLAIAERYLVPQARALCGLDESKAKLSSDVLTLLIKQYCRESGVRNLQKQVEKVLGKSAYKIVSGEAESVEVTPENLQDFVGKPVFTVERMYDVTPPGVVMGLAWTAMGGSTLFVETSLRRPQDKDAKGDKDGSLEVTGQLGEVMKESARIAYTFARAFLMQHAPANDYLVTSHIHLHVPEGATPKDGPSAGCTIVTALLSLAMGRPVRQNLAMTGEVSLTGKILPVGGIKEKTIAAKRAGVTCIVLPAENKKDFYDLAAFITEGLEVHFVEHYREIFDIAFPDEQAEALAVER", "experiment": "NADH-coupled ATPase assay, CODAS mutant LonP1^R721G", "type": "biochemical", "conditions": "compound 20 μM", "protocol": "Figure 2 The ATPase activity of wild-type LonP1^WTis blocked by CDDO-Me and CDDO-anhydride by noncompetitive and competitive inhibition, respectively, whereas the CODAS mutant LonP1^R721GATPase is resistant to inhibition. ATPase activities were measured using an NADH-coupled ATPase assay. Wild type and mutant LonP1 proteins (400 nM) were pre-incubated with or without compound for 30 min at room temperature. A and E, LonP1^WT, and (H and I) comparison of LonP1^WT and LonP1^R721G. ATP was titrated and its hydrolysis was measured over 5 min (mean ± S.D., N ≥ 2). B and F, double-reciprocal Lineweaver–Burk plots (mean ± S.D., N ≥ 2). C and G, determination of Ki (mean ± S.D., N ≥ 2). D, determination of αKi (mean ± S.D., N ≥ 2). C, G and H. mean values obtained from linear regression data. CDDO, 2-cyano-3,12-dioxooleana-1,9(11)-dien-28-oic acid.\nATPase reactions (200 μl total) were performed in 96-well plates at room temperature. LonP1 (400 nM monomer) was preincubated with DMSO (1–2%) vehicle control or CDDO derivatives in buffer (50 mM HEPES-KOH pH 7.5, 5 mM magnesium acetate, 75 mM potassium acetate) for 30 to 45 min at room temperature or 30 °C. […] The change in NADH absorbance at 340 nm was monitored in Spectramax plate reader for 5 min to obtain reaction velocities. […]"}},
  "data": [
    {"molecule": "COC(=O)[C@]12CCC(C)(C)C[C@H]1[C@H]1C(=O)C=C3[C@@]4(C)C=C(C#N)C(=O)C(C)(C)[C@@H]4CC[C@@]3(C)[C@]1(C)CC2", "note": "[CDDO-Me]", "values": [
      {"measurement": "Protein levels of p53", "setting": "26S proteasome; 1 μM", "value": "increased"},
      {"measurement": "26S proteasome-dependent degradation of p53", "setting": "26S proteasome; 0.125 to 0.5 μM", "value": "did not block"},
      {"measurement": "Inhibition of LonP1^R721G ATPase compared with LonP1^WT", "setting": "LonP1^R721G", "value": "showed resistance"}
    ]},
    {"molecule": "CC1(C)CC[C@]2(C(=O)OC(=O)[C@]34CCC(C)(C)C[C@H]3[C@H]3C(=O)C=C5[C@@]6(C)C=C(C#N)C(=O)C(C)(C)[C@@H]6CC[C@@]5(C)[C@]3(C)CC4)CC[C@]3(C)[C@H](C(=O)C=C4[C@@]5(C)C=C(C#N)C(=O)C(C)(C)[C@@H]5CC[C@]43C)[C@@H]2C1", "note": "[CDDO-anhydride]", "values": [
      {"measurement": "26S proteasome-mediated degradation of p53", "setting": "26S proteasome; 20 μM", "value": "did not block"},
      {"measurement": "Inhibition of LonP1^R721G ATPase compared with LonP1^WT", "setting": "LonP1^R721G", "value": "showed resistance"}
    ]}
  ]
}
